Data: ChEMBL document CHEMBL1201862, “PubChem BioAssay data set” (2004)
Several values for one entry are separate records, joined by “and”; a condition that tells them apart may be missing. Identical values can stand only once. Activity calls are given as the source filed them.

How the values were obtained:
[1] = target: 1-phosphatidylinositol 4,5-bisphosphate phosphodiesterase gamma-1 (Homo sapiens, UniProt P19174); assay: Counterscreen for inhibitors of phospholipase C isozymes (PLC-B3): Fluorescence-based biochemical high throughput dose response assay to identify inhibitors of phospholipase C isozymes (PLC-gamma1).
[2] = target: 1-phosphatidylinositol 4,5-bisphosphate phosphodiesterase beta-3 (Homo sapiens, UniProt Q01970); assay: Fluorescence-based biochemical high throughput dose response assay to identify inhibitors of phospholipase C isozymes (PLC-B3).
cells = conditions: HEK293
[3] = target: T1, Beta-2 adrenergic receptor (Homo sapiens, UniProt P07550); assay: Dose response for HTS for Beta-2AR agonists via FAP method from Powderset1.; type: functional
[4] = target: T1, Beta-2 adrenergic receptor; assay: beta2AR agonists driving receptor internalization, dose response, cell-based, FAP fluorogen, flow cytometry, cherry pick 1 (AID 588763); type: functional
Streptococcus = assay: Group A Streptococcus viability loss, dose response, counter-screen for streptokinase expression inhibitor project, luminescence, BacTiterGlo (AID 1915); type: functional, organism-based;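 note: potency for reduction of bacterial viability or growth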
[5] = tested on: Streptococcus sp. 'group A'; assay: growth inhibition of control SK(-) GAS strain, dose response, counter-screen for streptokinase expression inhibitor project, luminescence, kanamycin, BacTiterGlo, confirmation (AID 1900); type: functional, organism-based
[6] = human group III sPLA2 inhibitors, dose response, biochemical, QFRET, IC50 (AID 743457);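 note: green fluorescence rise as the enzyme cleaves BODIPY PC-A2 in liposomes; potency for inhibition of the enzyme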
Beta-galactosidase = Beta-galactosidase (Escherichia coli, UniProt Q8VNN2); assay: Dose response counterscreen for EBI2 assay utilizing the enzyme, b-galactosidase.; type: functional
[7] = HEK293T cell cytotoxicity, dose response, cytotoxicity control for HIV Vif inhibitor project, cherry-picks (AID 652208); type: functional, cell-based
Estrogen receptor beta [8] = target: T2, Estrogen receptor beta (Homo sapiens, UniProt Q92731); assay: ERβ–SRC-3 coactivator interaction inhibitors, confirmation, orthogonal assay, biochemical, ELISA, streptavidin-HRP readout (AID 1060)
Estrogen receptor beta [9] = target: T2, Estrogen receptor beta
[10] = HEK293 cell cytotoxicity, dose response, cytotoxicity control, plate reader, cherry-picked samples (AID 743446); type: functional, cell-based
[11] = MC4R antagonists, dose response, counter-screen for LGR2 antagonist project, cell-based, plate reader, cherry pick (AID 743444); type: functional;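 note: transfected HEK 293 cells stimulated with alpha-MSH peptide; potency of inhibitors of the alpha-MSH evoked signal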
[12] = LGR2 antagonists, dose response, cell-based, HEK293, CRE-luciferase reporter, cherry pick, set 2 (AID 743343); type: functional;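 note: transfected cells were stimulated with diluted bursicon conditioned medium after compound addition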
[13] = HepG2 cell cytotoxicity, dose response, cytotoxicity control, plate reader, cherry-pick, antagonist series (AID 743416); type: functional, cell-based
Genome polyprotein = Genome polyprotein (dengue virus type 2, UniProt P29990); assay: Dengue-2 NS5 methyltransferase inhibitors, primary screen, biochemical, confirmation dose response (AID 588689); type: functional
Caspase-7 = Caspase-7 (Homo sapiens, UniProt P55210); assay: human caspase-7 inhibitors, dose response, selectivity assay for caspase-6 inhibitor project, biochemical, DEVD-R110 fluorescence, cherry-pick (AID 743295)
Caspase-3 = target: T3, Caspase-3 (Homo sapiens, UniProt P42574); assay: caspase-3 enzyme inhibitors, selectivity check, dose response, selectivity assay for caspase-6 allosteric inhibitor project, biochemical, fluorescence, cherry-picked samples (AID 743291)
T3 sequence (P42574 whole entry): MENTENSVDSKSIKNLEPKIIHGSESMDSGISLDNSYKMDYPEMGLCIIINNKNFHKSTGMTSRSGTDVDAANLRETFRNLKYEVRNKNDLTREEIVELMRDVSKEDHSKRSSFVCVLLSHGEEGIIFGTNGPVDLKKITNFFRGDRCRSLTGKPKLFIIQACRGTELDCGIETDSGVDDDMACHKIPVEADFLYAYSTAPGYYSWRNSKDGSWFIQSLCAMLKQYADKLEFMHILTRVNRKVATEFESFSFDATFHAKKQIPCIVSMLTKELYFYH

Caspase-6 = target: T4, Caspase-6 (Homo sapiens, UniProt P55212); assay: human caspase-6 inhibitors, dose response, biochemical, VEID-R110 fluorescence, cherry-pick (AID 720632)
T4 sequence (P55212 whole entry): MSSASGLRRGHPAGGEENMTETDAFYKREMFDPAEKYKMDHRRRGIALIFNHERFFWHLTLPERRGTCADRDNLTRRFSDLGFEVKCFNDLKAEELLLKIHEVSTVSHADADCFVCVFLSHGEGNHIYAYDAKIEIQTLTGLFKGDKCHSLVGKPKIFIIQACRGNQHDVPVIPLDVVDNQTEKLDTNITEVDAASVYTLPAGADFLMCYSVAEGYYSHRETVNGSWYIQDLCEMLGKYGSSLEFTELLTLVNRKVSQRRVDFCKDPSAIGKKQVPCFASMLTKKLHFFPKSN

T1 sequence (P07550 whole entry): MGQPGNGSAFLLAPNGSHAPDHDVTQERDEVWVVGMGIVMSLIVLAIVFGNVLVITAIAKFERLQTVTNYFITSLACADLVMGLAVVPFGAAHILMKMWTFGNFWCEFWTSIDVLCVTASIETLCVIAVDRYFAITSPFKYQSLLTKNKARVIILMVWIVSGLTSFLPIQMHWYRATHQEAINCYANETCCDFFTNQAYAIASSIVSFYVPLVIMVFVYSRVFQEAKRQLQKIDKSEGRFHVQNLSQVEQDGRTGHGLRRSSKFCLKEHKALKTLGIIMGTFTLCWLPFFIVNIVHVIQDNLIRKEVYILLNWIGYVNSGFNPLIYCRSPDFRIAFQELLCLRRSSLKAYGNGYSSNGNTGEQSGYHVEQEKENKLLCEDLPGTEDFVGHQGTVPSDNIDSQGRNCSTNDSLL
T2 sequence (Q92731 whole entry): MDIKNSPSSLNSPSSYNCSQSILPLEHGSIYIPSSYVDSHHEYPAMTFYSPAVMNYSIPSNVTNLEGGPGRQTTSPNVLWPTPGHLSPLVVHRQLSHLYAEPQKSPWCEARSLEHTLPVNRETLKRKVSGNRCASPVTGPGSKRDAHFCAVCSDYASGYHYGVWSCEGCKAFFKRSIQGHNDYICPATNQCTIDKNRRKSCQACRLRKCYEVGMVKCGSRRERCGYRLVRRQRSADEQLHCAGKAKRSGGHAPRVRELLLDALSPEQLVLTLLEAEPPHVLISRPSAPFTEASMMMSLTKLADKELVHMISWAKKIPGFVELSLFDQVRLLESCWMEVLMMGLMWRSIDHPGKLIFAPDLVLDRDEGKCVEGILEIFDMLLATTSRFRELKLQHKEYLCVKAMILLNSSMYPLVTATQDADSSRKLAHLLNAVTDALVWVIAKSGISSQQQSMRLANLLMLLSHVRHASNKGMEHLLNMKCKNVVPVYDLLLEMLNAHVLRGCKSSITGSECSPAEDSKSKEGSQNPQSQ
Sequence of Genome polyprotein (P29990 2492-3391 limits assumed): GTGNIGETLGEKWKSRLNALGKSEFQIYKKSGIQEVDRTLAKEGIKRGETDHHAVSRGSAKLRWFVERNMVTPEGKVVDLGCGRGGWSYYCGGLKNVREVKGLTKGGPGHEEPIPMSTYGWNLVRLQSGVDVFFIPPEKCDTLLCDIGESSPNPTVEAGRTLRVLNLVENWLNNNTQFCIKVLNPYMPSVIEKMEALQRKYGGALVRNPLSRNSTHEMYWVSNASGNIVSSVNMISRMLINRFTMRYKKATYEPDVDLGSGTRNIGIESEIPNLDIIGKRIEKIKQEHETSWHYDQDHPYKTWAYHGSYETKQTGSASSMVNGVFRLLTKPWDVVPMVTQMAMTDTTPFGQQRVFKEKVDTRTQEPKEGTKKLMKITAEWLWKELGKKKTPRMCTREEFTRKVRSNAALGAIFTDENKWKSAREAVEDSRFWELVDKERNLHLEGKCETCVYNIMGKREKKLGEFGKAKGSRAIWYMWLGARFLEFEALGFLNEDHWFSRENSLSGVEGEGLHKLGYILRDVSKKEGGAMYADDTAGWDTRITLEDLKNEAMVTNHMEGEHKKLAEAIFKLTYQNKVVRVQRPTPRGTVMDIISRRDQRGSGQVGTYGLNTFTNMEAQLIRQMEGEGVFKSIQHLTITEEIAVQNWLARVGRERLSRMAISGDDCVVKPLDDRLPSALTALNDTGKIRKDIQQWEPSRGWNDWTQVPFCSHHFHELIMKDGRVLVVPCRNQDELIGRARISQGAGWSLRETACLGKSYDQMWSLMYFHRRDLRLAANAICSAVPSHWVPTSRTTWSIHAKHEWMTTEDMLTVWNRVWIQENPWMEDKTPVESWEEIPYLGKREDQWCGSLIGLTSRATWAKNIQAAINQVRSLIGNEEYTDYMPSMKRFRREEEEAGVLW
Sequence of 1-phosphatidylinositol 4,5-bisphosphate phosphodiesterase gamma-1 (P19174 whole entry): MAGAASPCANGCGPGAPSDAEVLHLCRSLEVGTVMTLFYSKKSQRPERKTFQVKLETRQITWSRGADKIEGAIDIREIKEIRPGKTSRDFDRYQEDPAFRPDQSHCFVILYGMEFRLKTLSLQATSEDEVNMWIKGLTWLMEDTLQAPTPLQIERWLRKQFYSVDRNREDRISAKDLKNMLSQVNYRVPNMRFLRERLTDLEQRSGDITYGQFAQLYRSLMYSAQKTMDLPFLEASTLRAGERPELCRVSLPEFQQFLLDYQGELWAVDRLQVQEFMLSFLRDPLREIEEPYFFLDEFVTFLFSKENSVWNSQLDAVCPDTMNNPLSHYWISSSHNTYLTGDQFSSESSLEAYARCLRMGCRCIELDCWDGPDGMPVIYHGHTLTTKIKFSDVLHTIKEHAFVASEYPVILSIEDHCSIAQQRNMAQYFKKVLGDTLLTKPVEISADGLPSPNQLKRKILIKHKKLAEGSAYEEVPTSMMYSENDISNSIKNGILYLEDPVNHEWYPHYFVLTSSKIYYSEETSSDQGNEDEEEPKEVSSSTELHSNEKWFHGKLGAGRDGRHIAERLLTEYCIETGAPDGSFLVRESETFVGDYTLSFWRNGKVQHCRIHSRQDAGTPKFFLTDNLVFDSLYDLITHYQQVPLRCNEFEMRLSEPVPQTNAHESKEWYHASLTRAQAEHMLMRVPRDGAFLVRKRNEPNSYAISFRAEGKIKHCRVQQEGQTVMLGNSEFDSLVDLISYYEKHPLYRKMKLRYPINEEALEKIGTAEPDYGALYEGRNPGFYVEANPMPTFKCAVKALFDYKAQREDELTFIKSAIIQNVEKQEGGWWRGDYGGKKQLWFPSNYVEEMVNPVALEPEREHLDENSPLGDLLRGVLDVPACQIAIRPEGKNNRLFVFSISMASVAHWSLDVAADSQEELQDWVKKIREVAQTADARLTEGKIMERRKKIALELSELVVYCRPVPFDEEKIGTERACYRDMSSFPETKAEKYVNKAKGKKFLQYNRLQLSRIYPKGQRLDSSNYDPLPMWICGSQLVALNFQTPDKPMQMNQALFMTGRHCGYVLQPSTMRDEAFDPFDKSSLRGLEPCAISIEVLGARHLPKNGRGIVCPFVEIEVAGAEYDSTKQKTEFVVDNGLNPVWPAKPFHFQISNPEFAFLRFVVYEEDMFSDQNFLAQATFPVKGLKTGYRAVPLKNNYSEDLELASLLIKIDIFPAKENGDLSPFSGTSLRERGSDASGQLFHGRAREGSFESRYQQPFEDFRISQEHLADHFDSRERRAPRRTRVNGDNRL
Sequence of Caspase-7 (P55210 24-198 limits assumed): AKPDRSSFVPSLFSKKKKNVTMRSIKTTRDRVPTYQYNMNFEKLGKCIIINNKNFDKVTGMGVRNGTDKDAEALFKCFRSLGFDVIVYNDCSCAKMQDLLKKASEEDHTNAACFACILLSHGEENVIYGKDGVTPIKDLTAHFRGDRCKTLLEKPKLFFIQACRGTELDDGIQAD
Sequence of Caspase-7 (P55210 207-303 limits assumed): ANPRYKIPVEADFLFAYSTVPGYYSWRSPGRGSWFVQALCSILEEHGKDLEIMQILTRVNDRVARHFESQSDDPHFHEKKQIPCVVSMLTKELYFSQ
Sequence of Beta-galactosidase (Q8VNN2 whole entry): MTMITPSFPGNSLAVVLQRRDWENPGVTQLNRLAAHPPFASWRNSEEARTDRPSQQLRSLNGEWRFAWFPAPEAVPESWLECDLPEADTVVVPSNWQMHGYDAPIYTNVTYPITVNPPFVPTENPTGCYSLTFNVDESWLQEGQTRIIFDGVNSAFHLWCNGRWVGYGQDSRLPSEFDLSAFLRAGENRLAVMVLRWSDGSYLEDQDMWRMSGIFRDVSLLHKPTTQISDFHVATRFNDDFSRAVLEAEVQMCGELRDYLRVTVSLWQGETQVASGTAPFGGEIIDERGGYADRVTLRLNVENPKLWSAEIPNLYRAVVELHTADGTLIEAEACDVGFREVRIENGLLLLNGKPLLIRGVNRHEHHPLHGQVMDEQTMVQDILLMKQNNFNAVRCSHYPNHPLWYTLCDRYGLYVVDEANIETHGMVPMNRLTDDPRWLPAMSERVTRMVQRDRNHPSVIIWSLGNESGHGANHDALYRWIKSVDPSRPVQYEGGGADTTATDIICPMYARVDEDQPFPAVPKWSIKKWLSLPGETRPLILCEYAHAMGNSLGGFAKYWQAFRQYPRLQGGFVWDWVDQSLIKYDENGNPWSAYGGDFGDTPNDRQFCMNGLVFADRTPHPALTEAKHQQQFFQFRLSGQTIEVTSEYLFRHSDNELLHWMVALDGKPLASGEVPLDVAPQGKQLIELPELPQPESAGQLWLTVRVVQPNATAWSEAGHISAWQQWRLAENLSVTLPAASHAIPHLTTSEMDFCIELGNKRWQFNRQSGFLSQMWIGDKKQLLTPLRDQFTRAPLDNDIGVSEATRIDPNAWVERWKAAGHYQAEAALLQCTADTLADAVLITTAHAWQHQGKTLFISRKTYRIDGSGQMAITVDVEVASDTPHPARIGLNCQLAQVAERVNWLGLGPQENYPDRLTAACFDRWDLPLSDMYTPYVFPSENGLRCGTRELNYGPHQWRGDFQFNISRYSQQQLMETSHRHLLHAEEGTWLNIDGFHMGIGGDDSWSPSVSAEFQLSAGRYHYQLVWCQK

With `O=C1C[S+]([O-])CN1c1ccc(Oc2ccccc2)cc1` (stereo unspecified) the IC50 [1] was 12.5 µM (inactive) and the IC50 [2] was > 122 µM (inactive).
For `CCOCCCN=C(S)N1CCCN(c2nc3cc(C)c(C)cc3cc2C#N)CC1`, the AC50 (cells) was > 52 µM (inactive).
In the case of `Cc1ccc(OCC(=O)Nc2ccc(-c3nc4ncccc4o3)cc2)c(C)c1`, the EC50 [3] is reported as 0.503 µM (active) and the EC50 [4] is reported as 316 nM (active) and 92.7 nM (active).
With `Cc1ccc(C(=O)NC(=S)NNC(=O)c2ccccc2O)cc1` the EC50 (Streptococcus) was 5.63 µM (active), the EC50 [5] was 1.29 µM (active) and the IC50 [6] was > 122 µM (inactive).
For `O=C(/C=C/c1ccc([N+](=O)[O-])cc1)N1CCN(S(=O)(=O)c2cccs2)CC1`, the IC50 (Beta-galactosidase) was > 80 µM (inactive).
With `CCOc1c(C(N)=O)c(-c2ccccc2)c2c(O)nc3ccccc3n12` the AC50 [7] was 49.9 µM (active), the IC50 (Estrogen receptor beta [8]) was > 50 µM (not active) and the IC50 (Estrogen receptor beta [9]) was 33.6 µM (not active).
With `COc1ccc(NC(=O)Nc2cccc([N+](=O)[O-])c2)cc1Cl` the AC50 [10] was > 52 µM (inactive), the AC50 [11] was 34.3 µM (active) and the AC50 [12] was 33.1 µM (active). For the same molecule, the AC50 [13] was 26.8 µM (active).
With `CC(Cc1ccc(O)cc1)NCC(O)c1ccc(O)c(O)c1` (stereo unspecified) the IC50 (Genome polyprotein) was > 100 µM (active), the AC50 (Caspase-7) was > 70 µM (inactive) and the AC50 (Caspase-3) was 24.5 µM (active). The AC50 (Caspase-6) was 3.68 µM (active) and the EC50 [4] was 553 nM (active).
